Experimental data reported in patent US6417397B1, “N-substituted alkylamino acids for use as amino-protecting groups” (The Regents of the University of California, San Diego, priority 1999, dated 2002).

Assay: Acidolysis (rate of scission) of acylated NMeAib amides with 2% TFA in acetonitrile
Format: physicochemical
Conditions: for t½ of protecting group: mild acidic conditions (2% TFA in acetonitrile)
Excerpt: In accordance with the present invention, it has been discovered that the rate of reaction can be altered simply by modifying X. Thus, for electron-donating X groups the rate of scission (the sensitivity to acidic conditions) increases. The opposite effect holds true for electron-withdrawing X groups. Four p-substituted benzoyl-N—MeAib—Phe—OMe (7a-d) compounds were subjected to acidic conditions (2% trifluoroacetic acid (TFA) in acetonitrile) and the rate of scission measured for each protecting group.
The equation representing the line in FIG. 1 is particularly useful because it allows one to predict the rate of scission for any m-substituted or p-substituted X—C6H4C(O)—NMeAib amide where a for the parent acid is known. […]

[1] = acidolysis with 2% TFA in acetonitrile

Row | Half-life (2% TFA in acetonitrile) | Half-life [1] [h] | t½ of protecting group [min] | half life predicted from the linear free energy equation of FIG. 1 (predicted from σ of the parent acid, X = dimethylamino) | Compound | k [1] [s⁻¹]
1 | about 2 hours | 2 | – | – | COC(=O)[C@H](Cc1ccccc1)NC(=O)C(C)(C)N(C)C(=O)c1ccc(Cl)cc1 [Cl, p-Cl—C6H4C(O)—NMeAib—Phe—OMe] | 8.3e-05 ± 3e-06
2 | – | 8 | – | – | COC(=O)[C@H](Cc1ccccc1)NC(=O)C(C)(C)N(C)C(=O)c1ccc(C#N)cc1 [CN, p-CN—C6H4C(O)—NMeAib—Phe—OMe] | 2.3e-05 ± 1e-06
3 | – | 5 | – | – | COC(=O)[C@H](Cc1ccccc1)NC(=O)C(C)(C)N(C)C(=O)c1ccc(C(F)(F)F)cc1 [CF3, p-CF3—C6H4C(O)—NMeAib—Phe—OMe] | 3.7e-05 ± 2e-06
4 | about 12 hours | 12 | – | – | COC(=O)[C@H](Cc1ccccc1)NC(=O)C(C)(C)N(C)C(=O)c1ccc([N+](=O)[O-])cc1 [NO2, p-NO2—C6H4—C(O)—NMeAib—Phe—OMe] | 1.5e-05 ± 1e-06
5 | – | – | 20 | – | COc1ccc(C(=O)N(C)C(C)(C)C(=O)O)cc1 [p-methoxy-benzoyl-NMeAib] | –
6 | – | – | – | about 29 seconds | p-N(CH3)2C6H4C(O)—NMeAib | –
7 | – | – | 720 | – | p-nitro-benzoyl-NMeAib | –
